Literature values, collected in US12721837B2, “Stable pharmaceutical compositions of clonidine” (AZURITY PHARMACEUTICALS, INC., priority 2021, dated 2026).

Legend:
[1] = after oral administration

Solubility in water: freely soluble | Absorption from the gastrointestinal tract [1]: almost completely absorbed
Structure (SMILES): Clc1cccc(Cl)c1N=C1NCCN1 [Clonidine, N-(2,6-dichlorophenyl)-4,5-dihydro-1H-imidazol-2-amine]
